The text below walks through data of patent US6544930B2, “Compact storage and shipping system for glyphosate herbicide” (Monsanto Technology LLC, priority 1998, dated 2003).

Data set [1] is described as follows: Specific gravity / density of aqueous glyphosate salt solutions and compositions (Mettler DA-300 meter). The class given is physicochemical. On the procedure:
Specific gravities are measured using a Mettler DA-300 Density/Specific Gravity Meter.
In a 1 liter glass vessel with magnetic stirrer are mixed 479.2 g glyphosate acid, technical grade (assay 96%), 166.0 g monoethanolamine and water to 1000 g. Reaction of the glyphosate acid with the monoethanolamine to form the MEA salt of glyphosate is exothermic. The reaction mixture is allowed to cool to room temperature. […] The density of the solution at 25° C. is […], thus the volume at 25° C. of 1000 g of this solution is 763 ml and the weight/volume concentration of glyphosate is 602 g a.e./l.
A series of aqueous solutions of glyphosate MEA salt, having a range of glyphosate a.e. concentrations, are prepared by the general procedure of Example 1. Specific gravity is measured for each solution.
[…] Cloud point is a measure of the maximum temperature at which a given aqueous composition containing a surfactant and a salt at defined concentrations forms a single-phase solution. Above the cloud point, the surfactant separates from the solution, initially as a hazy or cloudy dispersion, and, upon standing, as a distinct phase generally rising to the surface of the solution. Cloud point is determined by heating the composition until the solution becomes cloudy, and then allowing the composition to cool, with agitation, while its temperature is continuously monitored. A temperature reading taken when the solution clears is a measure of cloud point.

Data set [2] is described as follows: Glyphosate a.e. weight/volume concentration of salt solution. In kind it is physicochemical. The settings on record: for weight/volume concentration of glyphosate: 25° C., 46.0% by weight glyphosate a.e.; for glyphosate a.e. contained in 1 liter of solution: 30% a.e. by weight solution at 20° C.; for more glyphosate a.e. per liter than IPA salt solution: equal a.e. weight concentration (30% a.e. by weight, 20° C.). On the procedure:
Thus 1 liter of 30% a.e. by weight glyphosate potassium salt solution at 20° C. contains approximately 376 g glyphosate a.e./l, whereas 1 liter of 30% a.e. by weight glyphosate IPA salt solution at 20° C. contains approximately 347 g glyphosate a.e./l. In other words, at equal a.e. weight concentration, the potassium salt solution delivers about 8% more glyphosate a.e. per liter.
Similarly, 1 liter of 30% a.e. by weight glyphosate MEA salt solution at 20° C. contains approximately 371 g glyphosate a.e./l. Therefore at equal a.e. weight concentration, the MEA salt solution delivers about 7% more glyphosate a.e. per liter than an IPA salt solution.
In a 1 liter glass vessel with magnetic stirrer are mixed 479.2 g glyphosate acid, technical grade (assay 96%), 166.0 g monoethanolamine and water to 1000 g. Reaction of the glyphosate acid with the monoethanolamine to form the MEA salt of glyphosate is exothermic. The reaction mixture is allowed to cool to room temperature. The specific gravity (20/15.6° C.) of the resulting 62.6% by weight aqueous solution of glyphosate MEA salt, containing 46.0% by weight glyphosate a.e., is measured and found to be 1.32. The density of the solution at 25° C. is […], thus the volume at 25° C. of 1000 g of this solution is 763 ml and the weight/volume concentration of glyphosate is 602 g a.e./l.

Data set [3] is described as follows: Viscosity of glyphosate salt solutions and compositions. The class given is physicochemical. The conditions noted are these: 25° C.; 46% a.e. by weight solution without surfactant. On the procedure: Specific gravity (20/15.6° C.), viscosity at 25° C. and cloud point are recorded for each composition prepared as shown in Table 5. Cloud point is a measure of the maximum temperature at which a given aqueous composition containing a surfactant and a salt at defined concentrations forms a single-phase solution. Above the cloud point, the surfactant separates from the solution, initially as a hazy or cloudy dispersion, and, upon standing, as a distinct phase generally rising to the surface of the solution. Cloud point is determined by heating the composition until the solution becomes cloudy, and then allowing the composition to cool, with agitation, while its temperature is continuously monitored. A temperature reading taken when the solution clears is a measure of cloud point.
The maximum surfactant concentration attainable in practice in an aqueous concentrate composition containing glyphosate salt at 540 g a.e./l is compared for MEA and IPA salts. This is determined by adding a selected surfactant in increments to a 46% a.e. by weight aqueous solution of the glyphosate salt until the glyphosate weight/volume concentration falls from its initial level (565 g a.e./l for IPA salt, 602 g a.e./l for MEA salt) to 540 g a.e./l. […] When the maximum attainable surfactant concentration is reached, viscosity is measured at 25° C. […]

The conditions of data set [4]: cited from earlier work.
The next data set in a line: Solubility in water. The class given is physicochemical. The conditions noted are these: 20° C.; for solubility in pure water: weight of salt per weight of solution. The text has this:
Solubility in water of the potassium and MEA salts of glyphosate is believed not to be recorded in prior art but is readily determined by procedures familiar to those skilled in the art. Similarly, aqueous solutions of these salts at concentrations greater than about 40% by weight are believed not to have been specifically disclosed, thus any unusual or unpredicted properties of such solutions have not been publicly known. Concentrations expressed as percent by weight herein relate to parts by weight of salt or acid equivalent per 100 parts by weight of solution.
The solubility of the MEA salt is very similar to the solubility of the IPA salt.

The nature of data set [5]: Maximum attainable surfactant concentration at 540 g a.e./l glyphosate. The class given is physicochemical. On the procedure: The maximum surfactant concentration attainable in practice in an aqueous concentrate composition containing glyphosate salt at 540 g a.e./l is compared for MEA and IPA salts. This is determined by adding a selected surfactant in increments to a 46% a.e. by weight aqueous solution of the glyphosate salt until the glyphosate weight/volume concentration falls from its initial level (565 g a.e./l for IPA salt, 602 g a.e./l for MEA salt) to 540 g a.e./l. The study is conducted using either Surfactant A or Surfactant F of Table 3 above. When the maximum attainable surfactant concentration is reached, viscosity is measured at 25° C.

The mark [6] stands for this setting: 20/18.6° C., 30% a.e. by weight monobasic salt solution.
Setting [7] is: 20/15.6° C., solution containing 46.0% by weight glyphosate a.e.
Setting [8] is: MEA salt solution 29.9% a.e. by weight, IPA salt solution 30.2%.

Where a name gives a salt, the structure may show the parent alone. Bounds are passed on as bounds.

Regarding `CN` [methylammonium], the “Specific Gravity” value in data set [1] (setting [6]) is 1.1667.
Consider `CC(C)N.O=C(O)CNCP(=O)(O)O` [glyphosate IPA salt, isopropylammonium salt of glyphosate], for which the Specific Gravity in data set [1] (setting [7]) came out at 1.24; in data set [1] (setting [6]) it was 1.1554; in data set [1] (setting [8]), 1.1566. For the same compound, the “weight/volume concentration of glyphosate” value in data set [2] is on record as 565 g a.e./l. Besides, the “glyphosate a.e. contained in 1 liter of solution” value (shortened to “glyphosate a.e. contained”) in data set [2] is on record as “approximately 347 g glyphosate a.e./l”. Besides, in data set [3], the viscosity is on record as 165 cPs. In addition, the “limit of solubility in aqueous solution” value in data set [4] (only slightly higher than about 62% by weight) is reported as over 62 % by weight.
Consider `O=C(O)CNCP(=O)(O)O` [glyphosate MEA salt, monoethanolammonium salt of glyphosate], for which, in “Solubility in water”, the “solubility in pure water as glyphosate acid equivalent” value is recorded as “about 47 % a.e. by weight” and the “solubility in pure water” value is given as “about 64 % by weight”. The “solubility in pure water as glyphosate acid equivalent” value in “Solubility in water” (listed as MEA salt) is recorded as “about 47 % a.e. by weight”. Besides, in data set [1] (setting [7]), the Specific Gravity is listed as 1.32. For the same compound, in data set [1] (20/18.6° C., 30% a.e. by weight monobasic salt solution, listed as monoethanolammonium (MEA)), the “Specific Gravity” value came to 1.2357. The “specific gravity higher than that of 30.2% IPA salt solution” value in data set [1] (29.9% a.e. by weight MEA salt solution) is reported as 3.7%. Also, in data set [1] (setting [8]), the Specific Gravity is recorded as 1.1991. Besides, the “specific gravity compared with corresponding IPA salt solution” value in data set [1] (all concentrations, FIG. 1) is recorded as “significantly higher”. Moreover, in data set [2], the “weight/volume concentration of glyphosate” value is listed as 602 g a.e./l, the “glyphosate a.e. contained” value was “approximately 371 g glyphosate a.e./l” and the “more glyphosate a.e. per liter than IPA salt solution” value is recorded as “about 7%”. Besides, the viscosity in data set [3] was found to be 88 cPs. Moreover, in data set [5], the “surfactant concentration relative to the maximum attainable using the IPA salt” value was “more than 2.5 times”.
In the case of `CCN.O=C(O)CNCP(=O)(O)O`, in data set [1] (setting [6]), the “Specific Gravity” value is 1.1599.
On to `C[S+](C)C.O=C([O-])CNCP(=O)(O)O` [trimethylsulfonium (TMS)], for which the “Specific Gravity” value in data set [1] (setting [6]) came to 1.1904.
On to `O=C(O)CNCP(=O)(O)O` [glyphosate potassium salt], for which the “solubility in pure water as glyphosate acid equivalent” value in “Solubility in water” (listed as potassium salt, potassium salt) is recorded as “about 44 % a.e. by weight”. Moreover, in “Solubility in water” (potassium salt), the “solubility in pure water as glyphosate acid equivalent” value is listed as “about 44 % a.e. by weight” and the “solubility in pure water” value is given as “about 54 % by weight”. The “Specific Gravity” value in data set [1] (20/18.6° C., 30% a.e. by weight monobasic salt solution, potassium salt) came to 1.2539. Also, in data set [2] (potassium salt), the “glyphosate a.e. contained” value is listed as “approximately 376 g glyphosate a.e./l” and the “more glyphosate a.e. per liter than IPA salt solution” value is “about 8%”.
For the compound `O=C(O)CNCP(=O)(O)O`, the “Specific Gravity” value in data set [1] (setting [6]) stood at 1.1814.
Same read-out and setting: with `CCCN.O=C(O)CNCP(=O)(O)O` the figure was 1.1429.
Turning to `O=C(O)CNCP(=O)(O)O` [Glyphosate, N-phosphonomethylglycine], the solubility in water in data set [4] (25° C.) is 1.16 % by weight.
